Assay: Drug elution in PBS over 0-7 days (HPLC of supernatant)
Type: physicochemical
Details: 1.2 ml PBS, 37 degrees centigrade, 250 rpm
Description: The microspheres of Example 7 and the elongated solid composition of Example 8 were tested for drug release. Samples of the Everolimus containing microspheres, averaging 4.0 mg, were placed in Eppendorf tubes with 1.2 ml of phosphate buffered saline (PBS) and suspended with agitation. Samples of the elongated solid composition containing Everolimus of 12 mm length, averaging 0.51 mg were placed in Eppendorf tubes with 1.2 ml of phosphate buffered saline (PBS) and suspended with agitation. For comparison, samples of the drug used to produce the microspheres, averaging 4.1 mg, were also placed in Eppendorf tubes with 1.2 ml of PBS and suspended with agitation. The tubes were incubated at 37 degrees centigrade with mixing at 250 rpm. At time intervals of 0, 1, 2, 4 and 7 days a tube containing sample was centrifuged and the supernatant removed for drug analysis. For each time point, 10 microliters of supernatant was placed into 75:25 acetonitrile and water solvent to solubilize the drug and the resultant drug content was analyzed by HPLC. The HPLC method used a C18 reverse phase column and UV detection and was calibrated to a standard curve of drug. […] In contrast, the Everolimus containing microspheres released drug at a slower rate, with 0.06% of the drug released at 7 days. Similar to the microspheres, the elongated solid composition containing Everolimus released drug at a slow rate, with 0.04% of the drug released at 7 days.
The microspheres of Example 11 and the elongated solid composition of Example 12 were tested for drug release. […] For each time point, 10 microliters of supernatant was placed into 75:25 acetonitrile and water solvent to solubilize the drug and the resultant drug content was analyzed by HPLC. […]
The elongated solid composition of Example 15 was tested for drug release. […] For each time point, 10 microliters of supernatant was placed into 50:50 acetonitrile and methanol solvent to solubilize the drug and the resultant drug content was analyzed by HPLC. […]

drug released initially at 0 days (initial burst release) (0 days) [%]	drug released, average at subsequent time points (1, 2, 4 and 7 days) [%]	drug released at 7 days (7 days) [%]	SMILES
5.3	0.9	–	CC1(C)O[C@@H]2C[C@H]3[C@@H]4C[C@H](F)C5=CC(=O)C=C[C@]5(C)[C@@]4(F)[C@@H](O)C[C@]3(C)[C@]2(C(=O)CO)O1 [fluocinolone, fluocinolone acetonide]
–	–	0.45	CO[C@H]1C[C@@H]2CC[C@@H](C)[C@@](O)(O2)C(=O)C(=O)N2CCCC[C@H]2C(=O)O[C@H]([C@H](C)C[C@@H]2CC[C@@H](OCCO)[C@H](OC)C2)CC(=O)[C@H](C)/C=C(\C)[C@@H](O)[C@@H](OC)C(=O)[C@H](C)C[C@H](C)/C=C/C=C/C=C/1C [Everolimus]

From patent US20180250224A1, “Ophthalmic Drug Compositions” (Oxular Limited, priority 2014, published 2018)
